Common to all, as to test: NCI tumour cell line growth inhibition, 48 h
Assay [1] deals with A549 NSCLC.
Assay [2] deals with HOP-62 NSCLC.
Assay [3] relates to HS 578T breast.
Assay [4] has as its system MALME-3M melanoma.
Assay [5] concerns MDA-MB-435.
In assay [6] the test system is MOLT-4 leukemia.
In assay [7] the test system is OVCAR-5 ovarian.
Assay [8] deals with SK-MEL-2 melanoma.
The test system of assay [9] is SNB-75 CNS.
Assay [10] concerns T-47D breast.
Assay [11] concerns U251 CNS.

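Cells were grown in 96-well plates and exposed to each compound for 48 hours at five concentrations; endpoints were interpolated linearly between bracketing concentrations, or set to the highest concentration if not reached. TGI is the concentration that stops growth completely.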

`CCNC(=S)N/N=C/c1ccccn1`: the TGI in assay [1] is 82.1 µM; in assay [2], 54 µM; in [3], greater than 100 µM; in [4], greater than 100 µM; in assay [5], greater than 100 µM; in assay [6], greater than 100 µM. The TGI was greater than 100 µM in [7]; greater than 100 µM in assay [8]; greater than 100 µM in assay [9]; greater than 100 µM in [10]; 75 µM in assay [11].

Consider `CC1(C)[C@@H]2C[C@H]1c1cnc(-c3ccccn3)cc1[C@H]2C(O)[C@@H]1c2cc(-c3ccccn3)ncc2[C@H]2C[C@@H]1C2(C)C` (stereo partly specified), for which the TGI in assay [1] is 18.3 µM; in [2] it was 5.58 µM; in assay [3], 37.3 µM; in assay [4], 21.6 µM; in assay [5], greater than 38.5 µM; in assay [6], 0.505 µM. The TGI in assay [7] stood at 18 µM; in [8] it was 13 µM; in assay [9] it was 87.3 µM; in assay [10], 53.1 µM; in assay [11] it was 7.45 µM.

`COC1OC2COC(C)(C)OC2C2OC(C)(C)OC12` (stereo unspecified): the TGI is greater than 100 µM in assay [1]; 61.1 µM in assay [2]; 50 µM in assay [3]; greater than 100 µM in assay [4]; greater than 100 µM in assay [5]; 87.9 µM in assay [6]. For the same compound, the TGI in assay [7], in [8], in assay [10] and in assay [11] was greater than 100 µM throughout.

On to `COc1cc2nc(-c3c(F)cccc3F)n(Cc3c(F)cccc3F)c2cc1Cc1c(F)cccc1F`, for which the TGI in assay [1], in [2], in assay [3], in assay [4], in assay [5] and in assay [6] was greater than 100 µM throughout. Moreover, the TGI in assay [7] is greater than 100 µM; in assay [8], greater than 82.2 µM; in assay [9], greater than 70.8 µM; in [10] it was greater than 100 µM; in assay [11], greater than 100 µM.

On to `O=[N+]([O-])c1ccc2nc3c(nc2c1)-c1c2ccccc2cc2cccc-3c12`, for which the TGI in [1] is greater than 100 µM; in assay [2], 77.2 µM; in assay [3], 33 µM; in assay [4], 76.5 µM; in assay [5], greater than 83.9 µM; in assay [6], 31.7 µM. The TGI is greater than 100 µM in assay [7], 90 µM in assay [8], 4.11 µM in [10] and greater than 66 µM in assay [11].

On to `CCOC(=O)c1[nH]c2nc(SC)nc(NC)c2c1N`, for which the TGI in assay [1], in [2], in [3], in assay [4], in assay [5] and in assay [6] was greater than 100 µM each time. In addition, the TGI in assay [7], in assay [8], in [9], in [10] and in [11] was greater than 100 µM throughout.

Consider `COc1cc2c(cc1O)CC[n+]1cc3c(OC)c(OC)ccc3cc1-2`, for which the TGI in assay [1], in [3], in [4], in assay [5], in assay [6] and in [7] was greater than 100 µM in each case. The TGI in assay [8], in assay [9], in assay [10] and in [11] was greater than 100 µM each time.

In the case of `N/C(CSCCSC/C(N)=N/O)=N\O`, the TGI in assay [1], in [2], in assay [3], in assay [4], in assay [5] and in [6] was greater than 100 µM in each case. Moreover, the TGI in assay [7], in assay [9], in assay [10] and in [11] was greater than 100 µM in each case.

For the compound `CN1c2ccccc2C(=O)NC12CCN(CC1COc3ccccc3O1)CC2` (stereo unspecified), the TGI in assay [1] is greater than 100 µM; in [2], greater than 100 µM; in assay [3], greater than 100 µM; in assay [4], greater than 100 µM; in assay [5], greater than 100 µM; in [6], 77.1 µM. For the same compound, the TGI was greater than 100 µM in assay [7], greater than 100 µM in [9], 98.8 µM in [10] and greater than 100 µM in [11].

Turning to `CN(C)c1nc(=NCc2ccccn2)ss1`, the TGI in assay [1] was greater than 10 µM; in assay [2] it was greater than 10 µM; in [3], greater than 10 µM; in assay [4], greater than 8.91 µM; in assay [5], greater than 10 µM; in [6], 4.91 µM. Moreover, the TGI in assay [7], in [9], in [10] and in [11] was greater than 10 µM throughout.

As for `COc1cc(-c2c3c(cc4c2OCO4)[C@@H](Nc2ccc4c(c2)Cc2cc(N[C@@H]5c6cc7c(cc6C(c6cc(OC)c(O)c(OC)c6)[C@H]6C(=O)OC[C@H]56)OCO7)ccc2-4)[C@H]2COC(=O)[C@@H]2C3)cc(OC)c1O` (stereo partly specified), the TGI in [1] is greater than 100 µM; in assay [2] it was 57.5 µM; in [3] it was greater than 100 µM; in assay [4] it was 60.4 µM; in [5], 33.1 µM; in assay [6] it was greater than 100 µM. Besides, the TGI in assay [7] was 88.3 µM; in [9], greater than 100 µM; in assay [10], greater than 100 µM; in [11], 89 µM.

As to `O=c1oc2ccccc2c2nc3ccccc3cc12`, the TGI in assay [1] is greater than 100 µM; in assay [3] it was 66.7 µM; in assay [4], greater than 100 µM; in [5] it was greater than 100 µM; in assay [6], greater than 100 µM; in [7], greater than 100 µM. Further, the TGI is greater than 100 µM in assay [8], greater than 100 µM in assay [10] and 87.9 µM in assay [11].

For `CC(O)(C(=O)N(O)c1ccc(Cl)cc1)c1ccc(Cl)cc1` (stereo unspecified), the TGI was greater than 100 µM in assay [1]; 93 µM in assay [2]; 62.4 µM in assay [3]; greater than 100 µM in assay [4]; 87.8 µM in [5]; 42.9 µM in assay [6]. In addition, the TGI in assay [7] was greater than 100 µM; in assay [8], 50.1 µM; in [10] it was greater than 100 µM; in [11], 64.4 µM.

For `CCN(CC)C(=S)SS(=O)(=O)c1ccc(C)cc1`, the TGI is 85.5 µM in assay [2]; greater than 100 µM in assay [3]; 41.9 µM in assay [4]; greater than 100 µM in assay [5]; greater than 100 µM in [7]; greater than 100 µM in assay [8]. For the same compound, the figures for the TGI in assay [10] and in assay [11] were greater than 100 µM and 69.6 µM, respectively.

Regarding `CC/C=C\C/C=C\C/C=C\CCCCCCCC(=O)OC(COC(=O)CCCCCCCCCCCCCCCCC)COC1OC(CO)C(O)C(O)C1O` (stereo unspecified), the TGI is greater than 25 µM in assay [1]; greater than 25 µM in assay [2]; 18.5 µM in assay [3]; greater than 25 µM in [5]; greater than 25 µM in [6]; greater than 25 µM in assay [7]. The TGI in [8], in [9], in [10] and in assay [11] was greater than 25 µM throughout.

For the compound `NS(=O)(=O)c1nnc(NSc2ccc([N+](=O)[O-])cc2)s1`, the TGI in assay [1], in assay [2], in assay [3], in assay [4], in assay [5] and in assay [6] was greater than 100 µM each time. Also, the TGI in assay [7], in assay [8], in assay [10] and in assay [11] was greater than 100 µM in each case.

Take `CCOC1NC(=O)c2ccccc21` (stereo unspecified): the TGI in [1], in [2], in [3], in assay [4], in assay [5] and in assay [6] was greater than 100 µM each time. Further, the TGI in assay [7], in assay [9], in assay [10] and in [11] was greater than 100 µM in each case.

For the compound `O=C(NCCCNCCCCNCCCNC(=O)C(F)(F)F)C(F)(F)F`, the TGI in assay [1], in assay [2], in assay [3], in [4], in assay [5] and in assay [7] was greater than 100 µM each time. The TGI in [8], in assay [9], in assay [10] and in assay [11] was greater than 100 µM in each case.

Turning to `FC(F)=C(c1ccc(-c2ccc(Cl)cc2)cc1)C(F)(F)F`, the TGI in assay [1] was 37.4 µM; in [3], 68.7 µM; in assay [4], 31.3 µM; in [5], 49.4 µM; in [6], greater than 100 µM; in [7], 31.3 µM. In addition, the TGI was found to be 42.5 µM in assay [8], 25.6 µM in [9], 76.8 µM in assay [10] and 31.4 µM in assay [11].

With `COc1ccc(CCCCl)c(C2=NCCc3ccccc32)c1`, the TGI in [1], in [2], in assay [3], in [5], in assay [6] and in [7] was greater than 100 µM each time. Also, the TGI in assay [8], in assay [9], in [10] and in assay [11] was greater than 100 µM throughout.

Source of the values: PubChem BioAssay (NCI).
